This is an account of results in paper PMC5494507, “γ‐Secretase inhibitors in cancer clinical trials are pharmacologically and functionally distinct” (EMBO Molecular Medicine, 2017).

In one assay the test system is cNOTCH3sub. As to the kind of experiment: Cell-based γ-secretase cleavage assay, cNOTCH3sub in H4 cells (Aβ-like peptide ELISA). More on the design: species or system human. As to the method: (§1) Using these cell‐based γ‐secretase cleavage assays, we systematically investigated the substrate inhibition profile of BMS‐906024, MK‐0752, PF‐308414, RO4929097, Semagacestat, and DAPT. We treated H4 cells stably expressing cNOTCH1‐4sub with 4 pM to 10 μM of GSIs (Fig 5A and Table 2) and measured the Aβ‐like peptide secreted into the media.
(§2) For the cell‐based assay, all substrates contain a human NOTCH4 signal peptide sequence ([…]), amyloid β peptide (Aβ1–25/K16A) epitope tag followed by the juxtamembrane region (JMD) of the given substrate and a FLAG tag ([…]) at the COOH‐terminal. K16A mutant was created to decrease potential α‐secretase cleavage. The cDNAs were generated by gene synthesis conducted by Genscript. A schematic representation of the substrates is provided in Fig 4A, and sequences of the cDNAs and the proteins are provided in Appendix Fig S6. For clarity, these substrates are referred to as cell‐based assay substrates (e.g., NOTCH1 is cNOTCH1sub). Substrate cDNAs were cloned into pCDNA3.1 (Invitrogen, Carlsbad, CA, USA) for expression in H4 cells (ATCC, Manassas, VA).
(§3) H4 cells were cultured in Opti‐mem media (Thermo‐Fisher) supplemented with Hyclone 6% fetal bovine serum (GE, Logan, Utah, USA) and 1% penicillin/streptomycin (Life Technologies, Grand Island, NY, USA). pCDNA3.1 plasmids containing the substrate cDNAs were transfected into H4 cells using FuGENE HD reagent (Madison, WI, USA). Stable cell lines were established using G418 selection. […] Cells and conditioned media were used for WB, IP, and ELISA.
(§4) Sandwich ELISAs used for Aβ detection were performed as previously described (Murphy et al, 1999; Ran et al, 2014). Briefly, Aβ and Aβ‐like peptides in conditioned media were captured with Ab5 antibody and detected with horseradish peroxidase labeled mAb 4G8 (Biolegend). Synthetic Aβ1‐40 was used as standard. All ELISAs were developed with TMB substrate (KPL, Gaithersburg, Maryland, USA). Bis‐Tris precast gels (Biorad, Hercules, CA, USA) were used for all SDS–PAGE. Monoclonal anti‐FLAG M2 antibody (Sigma) and Aβ1‐16 antibody 6E10 (Covance) were used for Western blotting at 1:1,000 dilution. Anti‐CD74 In‐1 antibody (BD Bioscience, San Jose, CA, USA) was used for A20 cell lysate Western blotting at dilution of 1:1,000. MDA‐MB‐231 cell extracts were prepared by lysing cells in RIPA buffer containing protease and phosphatase inhibitors. The lysates were kept on ice for 30 min and vortexed every 10 min, and then centrifuged at 4°C for 10 min at 1,000 g. The supernatants were collected, and protein concentrations were determined by Bradford Assay. Pan‐NOTCH1 antibody (C‐20) (Santa Cruz Biotechnology) and cleaved NOTCH1 (Val1744) antibody ([…]) were used at 1:500 and 1:100 dilution in the test of endogenous NOTCH1 inhibition with β‐actin expression used as loading control. β‐actin antibody was used at 1:1,000 dilution (Sigma). Band intensities normalized for actin using densitometry analysis with ImageJ Software (NIH, USA).
Background: ELISA stands for enzyme-linked immunosorbent assay.

The test system of another assay is cNOTCH4sub. Nature of the assay: Cell-based γ-secretase cleavage assay, cNOTCH4sub in H4 cells (Aβ-like peptide ELISA). More on the design: species or system human. The conditions noted are these: Aβ-like peptide in media, GSI overnight. As to the method: as §1, §2, §3, §4
The test system of the next assay is full‐length APP. As to the kind of experiment: Cell-based γ-secretase cleavage assay, full-length APP stably overexpressing cells (Aβ ELISA). The following applies: for IC50: full-length APP stably overexpressing cells, Aβ ELISA. The method, then: We next tested all GSIs on cAPPC100sub and full‐length APP stably overexpressing cells. […] The low‐dose potentiation of γ‐secretase cleavage was further mechanistically probed using in vitro assays with recombinant substrates and IP‐MS.
as §3, §4

Another assay has as its system SPPL2a, SPPL2b, and SPP. Nature of the assay: Cell-based SPPLs cleavage assay, HEK 293t cells co-transfected with FBA and SPPLs (ELISA). The following applies: 1 μM, HEK 293t co-transfected with SPPLs and FBA. As to the method: It is known that SPP/SPPLs can be inhibited by select GSIs (Ran et al, 2015). Here, we tested the effect of various GSIs on the SPP/SPPL family members SPPL2a, SPPL2b, and SPP. We co‐transfected SPPLs with the BRI2 based chimeric SPP/SPPL substrate that we have referred to as FBA into HEK 293t cells. SPPL‐specific inhibitor (ZLL)2‐ketone was used as positive control. DAPT was not tested here as we and others have previously reported it had no effect on SPP activity at concentration up to 100 μM (Weihofen et al, 2003). […] Dose responses of BMS‐906024, RO4929097, and PF‐3084014 were performed with a similar strategy, but a stable SPPL2b/FBA overexpressing HEK 293 cell line was used instead of transient transfection (Fig 8B). […] Table 3 compares the GSIs’ potencies on γ‐secretase and SPPL2b. The average of IC50s on cNOTCH1sub, cNOTCH2sub, cNOTCH4sub, and APP was used as the GSI's potency on γ‐secretase.
SPPL2a, SPPL2b, SPP, and chimeric substrate FBA were generated as previously described (Ran et al, 2015). A20 cells (TIB‐208; ATCC, Manassas, VA, USA) were cultured in RPMI‐1640 medium (ATCC) supplied with 10% fetal bovine serum, 1% penicillin/streptomycin, and 0.05 mM 2‐mercaptoethanol (Life Technologies). Various concentrations of GSIs and (ZLL)2‐ketone as indicated in figures were applied to transfected HEK 293t cells at 70–90% confluence or A20 cells at a density of 5 × 10^5 cells/ml with fresh media in 48‐well format for 16 h. Cells and conditioned media were used for WB, IP, and ELISA.
as §4

The test system of a further assay is APP. Nature of the assay: Endogenous APP-CTF accumulation in MDA-MB-231 cells (Western blot). In kind it is cell-based. The following applies: for APP CTF increase / APP CTF level / accumulation at 100 nM: MDA-MB-231 (231 cells), 100 nM, triplicate; for APP CTF increase: vs DMSO; for concentration from which APP‐CTF process is inhibited: MDA-MB-231, 16 h. The method, then:
To extend the study to a more physiological system, we assessed endogenous NOTCH1 cleavage inhibition using the triple‐negative breast cancer line MDA‐MB‐231 (Fig 6A). Full‐length blots are shown in source data for Fig 6. NOTCH1 cleavage was detected by Western blotting using the Cell Signaling neo‐epitope NICD antibody. […] The inhibition of endogenous APP in MDA‐MB‐231 cells was also tested by detecting accumulation of APP COOH‐terminal fragments (APP‐CTFs). […] Figure 6D summarized the APP‐CTF band intensities normalized for DMSO group. The original blots are available in source data for Fig 6.
Values are mean ± SD of three tests. • APP‐CTF Western blot of MDA‐MB‐231 cells treated with indicated concentration of GSIs for 16 h. • Band intensities of APP‐CTF with 0.1 μM GSIs were normalized for DMSO control group. Values are mean ± SD of three tests. Data information: Original blots are provided as source data. All band intensity data are derived from three independent experiments and are analyzed by one‐way ANOVA using GraphPad Prism6 software. All experiments were repeated three times.Source data are available online for this figure.

[1] abbreviates: Aβ-like peptide in media, GSI overnight, read-out: IC50 cNOTCH3sub.
Where [2] appears, read: value in parentheses, read-out: IC50 cNOTCH3sub, from curves excluding the Aβ level > 120%.

What is called IC50 is the concentration needed to halve the response being measured.

“Also recorded” adds a separate entry of the source. Where two headings read alike, the source gives them in different places.

In the case of `CN1C(=O)[C@@H](NC(=O)[C@H](CCC(F)(F)F)[C@H](CCC(F)(F)F)C(N)=O)N=C(c2ccccc2)c2ccccc21` [BMS‐906024], the values for the 50% inhibitory concentration (IC50) with cNOTCH3sub (setting [1]), in the assay on cNOTCH4sub and with full‐length APP were 1.14 nM, 0.71 nM and 0.05 nM, respectively. Also, the “SPPLs‐catalyzed cleavage of FBA substrate” value (shortened to “SPPLs‐catalyzed cleavage”) in the assay on SPPL2a, SPPL2b, and SPP is “efficiently inhibited”. Also, the “APP CTF increase” value in the assay with APP was above 15 times. For the same molecule, the “concentration from which APP‐CTF process is inhibited” value in the assay with APP was at least 20 nM.
Consider `O=C(O)CC[C@H]1CC[C@@](c2cc(F)ccc2F)(S(=O)(=O)c2ccc(Cl)cc2)CC1` [MK‐0752], for which, in the assay on cNOTCH3sub, the “effect on cNOTCH3sub cleavage at low concentrations” value (“effect on cNOTCH3sub cleavage” below) is recorded as “increases cNOTCH3sub cleavage at low doses”. In addition, the IC50 with cNOTCH3sub (setting [1]) stood at 370 nM; in the assay with cNOTCH3sub (setting [2]), 194 nM; in the assay on cNOTCH4sub it was 191 nM; in the assay on full‐length APP it was 9.03 nM. Moreover, the “SPPLs‐catalyzed cleavage” value in the assay with SPPL2a, SPPL2b, and SPP was “did not show significant inhibition”. The “APP CTF level / accumulation at 100 nM” value is reported as “hard to see” with APP and “did not significantly increase CTF level” in the assay on APP (listed as MK). Besides, the “concentration from which APP‐CTF process is inhibited” value with APP is reported as at least 500 nM.
As to `CCC[C@H](N[C@H]1CCc2cc(F)cc(F)c2C1)C(=O)Nc1cn(C(C)(C)CNCC(C)(C)C)cn1` [PF‐3084014], the “effect on cNOTCH3sub cleavage” value in the assay on cNOTCH3sub is “potentiates cleavage of NOTCH3”. For the same molecule, the half-maximal inhibitory concentration (IC50) with cNOTCH3sub (setting [1]) is 1.21 nM; in the assay with cNOTCH4sub it was 0.81 nM; in the assay on full‐length APP, 0.07 nM. For the same molecule, the “SPPLs‐catalyzed cleavage” value in the assay with SPPL2a, SPPL2b, and SPP is given as “mild inhibition”. Besides, in the assay on APP, the “APP CTF increase” value is reported as above 15 times. The “concentration from which APP‐CTF process is inhibited” value in the assay with APP is at least 20 nM.
Consider `CC(C)(C(=O)NCC(F)(F)C(F)(F)F)C(=O)N[C@@H]1C(=O)Nc2ccccc2-c2ccccc21` [RO4929097], for which the IC50 was 19.8 nM with cNOTCH3sub (setting [1]), 6.93 nM in the assay with cNOTCH3sub (setting [2]), 3.4 nM in the assay with cNOTCH4sub and 1.41 nM in the assay with full‐length APP. Besides, the “concentration that significantly increases cleavage of the cNOTCH3sub” value with cNOTCH3sub (potentiation at low inhibitor concentration) is 0.5 to 2.5 nM. Besides, in the assay with full‐length APP (full-length APP overexpressing cells), the “low-dose potentiation of cleavage, APP” value was “low‐dose potentiation of cleavage was observed”. Besides, the “SPPLs‐catalyzed cleavage” value with SPPL2a, SPPL2b, and SPP is listed as “efficiently inhibited”. Also, the “APP CTF increase” value in the assay with APP is given as above 15 times. Moreover, in the assay on APP, the “concentration from which APP‐CTF process is inhibited” value was at least 20 nM.
Take `CC(C)[C@H](O)C(=O)N[C@@H](C)C(=O)N[C@@H]1C(=O)N(C)CCc2ccccc21` [Semagacestat]: the “effect on cNOTCH3sub cleavage” value with cNOTCH3sub is recorded as “potentiate”. Further, the IC50 in the assay on cNOTCH3sub (setting [1]) is 391 nM; in the assay with cNOTCH3sub (setting [2]), 129 nM; in the assay on cNOTCH4sub, 46 nM; in the assay on full‐length APP it was 24.5 nM. Further, the “SPPLs‐catalyzed cleavage” value in the assay on SPPL2a, SPPL2b, and SPP was “did not show significant inhibition”. In addition, in the assay on APP, the “APP CTF level / accumulation at 100 nM” value was “hard to see; also recorded: did not significantly increase CTF level”. In addition, in the assay on APP, the “concentration from which APP‐CTF process is inhibited” value is on record as at least 500 nM.
